Consider 23 compounds from patent US7598245B2 (Vertex Pharmaceuticals Incorporated, priority 2003, dated 2009).

Common to all, as to format: biochemical
Assay [1] has as its target KDR (Homo sapiens, UniProt P35968). As to the kind of experiment: Inhibition of KDR, coupled enzyme assay. The note with it: 300 μM ATP, 37° C. The procedure: Compounds were screened for their ability to inhibit KDR using a standard coupled enzyme assay (Fox et al., Protein Sci., (1998) 7, 2249). Assays were carried out in a mixture of 200 mM HEPES 7.5, 10 mM MgCl2, 25 mM NaCl, 1 mM DTT and 1.5% DMSO. Final substrate concentrations in the assay were 300 μM ATP (Sigma Chemicals) and 10 μM poly E4Y (Sigma). Assays were carried out at 37° C. and 30 nM KDR. Final concentrations of the components of the coupled enzyme system were 2.5 mM phosphoenolpyruvate, 200 μM NADH, 30 μg/ML pyruvate kinase and 10 μg/ml lactate dehydrogenase.
An assay stock buffer solution was prepared containing all of the reagents listed above, with the exception of ATP and the test compound of interest. 177 μl of the stock solution was placed in a 96 well plate followed by addition of 3 μl of 2 mM DMSO stock containing the test compound (final compound concentration 30 μM). The plate was preincubated for about 10 minutes at 37° C. and the reaction initiated by addition of 20 μl of ATP (final concentration 300 μM). Rates of reaction were obtained using a Molecular Devices plate reader (Sunnyvale, Calif.) over a 5 minute read time at 37° C.

The target of assay [2] is T1, CDK-2/Cyclin A (Homo sapiens, UniProt P24941).
T1 construct: 25 nM CDK-2/Cyclin A
As to the kind of experiment: Inhibition of CDK-2, coupled enzyme assay. Conditions: 100 μM ATP, 30° C. The procedure: Compounds are screened for their ability to inhibit CDK-2/Cyclin A using a standard coupled enzyme assay [Fox et al. Protein Sci. 1998, 7, 2249]. Reactions were carried out in 100 mM HEPES (pH 7.5), 10 mM MgCl2, 25 mM NaCl, 1 mM DTT and 1.5% DMSO. Final substrate concentrations in the assay are 100 μM ATP (Sigma chemicals) and 100 μM peptide (American Peptide, Sunnyvale, Calif.). Assays are carried out at 30° C. and 25 nM CDK-2/Cyclin A. Final concentrations of the components of the coupled enzyme system are 2.5 mM phosphoenolpyruvate, 350 μM NADH, 30 μg/ml pyruvate kinase and 10 μg/ml lactate dehydrogenase.
An assay stock buffer solution is prepared containing all of the reagents listed above, with the exception of CDK-2/Cyclin A, DTT and the test compound of interest. 56 μl of the test reaction is placed in a 384 well plate followed by addition of 1 μl of 2 mM DMSO stock containing the test compound (final compound concentration 30 μM). The plate is preincubated for ˜10 minutes at 30° C. and the reaction initiated by addition of 10 μl of enzyme (final concentration 25 nM). Rates of reaction are obtained using a BioRad Ultramark plate reader (Hercules, Calif.) over a 5 minute read time at 30° C. Ki values are determined according to standard methods.

Assay [3] addresses T2, JAK-3 (Homo sapiens, UniProt P52333).
T2 sequence (P52333 1-1124): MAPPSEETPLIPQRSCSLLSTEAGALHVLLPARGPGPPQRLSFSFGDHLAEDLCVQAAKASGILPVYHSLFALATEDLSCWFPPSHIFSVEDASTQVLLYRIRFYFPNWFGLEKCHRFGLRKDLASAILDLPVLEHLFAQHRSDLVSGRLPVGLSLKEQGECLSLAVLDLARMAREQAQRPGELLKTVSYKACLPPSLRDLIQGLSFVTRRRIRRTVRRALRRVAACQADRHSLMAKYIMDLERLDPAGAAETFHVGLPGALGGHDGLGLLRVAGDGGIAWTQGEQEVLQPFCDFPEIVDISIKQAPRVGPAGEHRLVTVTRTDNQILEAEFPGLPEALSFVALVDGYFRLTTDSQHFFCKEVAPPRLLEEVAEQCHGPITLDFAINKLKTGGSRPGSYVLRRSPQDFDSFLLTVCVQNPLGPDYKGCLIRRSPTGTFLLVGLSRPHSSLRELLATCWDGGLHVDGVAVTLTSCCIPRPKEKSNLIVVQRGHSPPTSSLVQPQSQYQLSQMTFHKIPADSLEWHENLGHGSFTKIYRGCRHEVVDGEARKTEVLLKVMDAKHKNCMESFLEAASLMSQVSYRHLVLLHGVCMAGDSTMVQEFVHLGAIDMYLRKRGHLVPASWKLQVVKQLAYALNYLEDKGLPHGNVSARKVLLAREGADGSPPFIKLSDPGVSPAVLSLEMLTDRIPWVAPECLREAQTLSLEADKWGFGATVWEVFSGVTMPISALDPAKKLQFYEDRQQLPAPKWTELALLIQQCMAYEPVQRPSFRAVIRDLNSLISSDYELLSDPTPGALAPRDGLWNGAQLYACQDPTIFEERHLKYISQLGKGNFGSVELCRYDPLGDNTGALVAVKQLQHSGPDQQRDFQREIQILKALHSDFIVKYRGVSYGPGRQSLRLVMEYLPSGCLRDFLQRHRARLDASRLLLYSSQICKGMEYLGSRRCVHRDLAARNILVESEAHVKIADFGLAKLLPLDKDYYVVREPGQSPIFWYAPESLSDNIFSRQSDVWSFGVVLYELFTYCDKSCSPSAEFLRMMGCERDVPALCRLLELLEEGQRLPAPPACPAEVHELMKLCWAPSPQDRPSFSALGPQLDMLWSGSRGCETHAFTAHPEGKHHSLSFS
As to the kind of experiment: JAK3 inhibition assay (ELISA, Poly (Glu, Ala, Tyr) coated plates). Conditions: 2 μM ATP. The procedure:
Compound inhibition of JAK was assayed by the method described by G. R. Brown, et al, Bioorg. Med. Chem. Lett. 2000, vol. 10, pp 575-579 in the following manner. Into Maxisorb plates, previously coated at 4° C. with Poly (Glu, Ala, Tyr) 6:3:1 then washed with phosphate buffered saline 0.05% and Tween-(PBST), was added 2 μM ATP, 5 mM MgCl2, and a solution of compound in DMSO. The reaction was started with JAK enzyme and the plates incubated for 60 minutes at 30° C. The plates were then washed with PBST, 100 μL HRP-Conjugated 4G10 antibody was added, and the plate incubated for 90 minutes at 30° C. The plate was again washed with PBST, 100 μL TMB solution is added, and the plates were incubated for another 30 minutes at 30° C. Sulfuric acid (100 μL of 1M) was added to stop the reaction and the plate is read at 450 nm to obtain the optical densities for analysis to determine Ki values.

Sequence of KDR (P35968 20-1356): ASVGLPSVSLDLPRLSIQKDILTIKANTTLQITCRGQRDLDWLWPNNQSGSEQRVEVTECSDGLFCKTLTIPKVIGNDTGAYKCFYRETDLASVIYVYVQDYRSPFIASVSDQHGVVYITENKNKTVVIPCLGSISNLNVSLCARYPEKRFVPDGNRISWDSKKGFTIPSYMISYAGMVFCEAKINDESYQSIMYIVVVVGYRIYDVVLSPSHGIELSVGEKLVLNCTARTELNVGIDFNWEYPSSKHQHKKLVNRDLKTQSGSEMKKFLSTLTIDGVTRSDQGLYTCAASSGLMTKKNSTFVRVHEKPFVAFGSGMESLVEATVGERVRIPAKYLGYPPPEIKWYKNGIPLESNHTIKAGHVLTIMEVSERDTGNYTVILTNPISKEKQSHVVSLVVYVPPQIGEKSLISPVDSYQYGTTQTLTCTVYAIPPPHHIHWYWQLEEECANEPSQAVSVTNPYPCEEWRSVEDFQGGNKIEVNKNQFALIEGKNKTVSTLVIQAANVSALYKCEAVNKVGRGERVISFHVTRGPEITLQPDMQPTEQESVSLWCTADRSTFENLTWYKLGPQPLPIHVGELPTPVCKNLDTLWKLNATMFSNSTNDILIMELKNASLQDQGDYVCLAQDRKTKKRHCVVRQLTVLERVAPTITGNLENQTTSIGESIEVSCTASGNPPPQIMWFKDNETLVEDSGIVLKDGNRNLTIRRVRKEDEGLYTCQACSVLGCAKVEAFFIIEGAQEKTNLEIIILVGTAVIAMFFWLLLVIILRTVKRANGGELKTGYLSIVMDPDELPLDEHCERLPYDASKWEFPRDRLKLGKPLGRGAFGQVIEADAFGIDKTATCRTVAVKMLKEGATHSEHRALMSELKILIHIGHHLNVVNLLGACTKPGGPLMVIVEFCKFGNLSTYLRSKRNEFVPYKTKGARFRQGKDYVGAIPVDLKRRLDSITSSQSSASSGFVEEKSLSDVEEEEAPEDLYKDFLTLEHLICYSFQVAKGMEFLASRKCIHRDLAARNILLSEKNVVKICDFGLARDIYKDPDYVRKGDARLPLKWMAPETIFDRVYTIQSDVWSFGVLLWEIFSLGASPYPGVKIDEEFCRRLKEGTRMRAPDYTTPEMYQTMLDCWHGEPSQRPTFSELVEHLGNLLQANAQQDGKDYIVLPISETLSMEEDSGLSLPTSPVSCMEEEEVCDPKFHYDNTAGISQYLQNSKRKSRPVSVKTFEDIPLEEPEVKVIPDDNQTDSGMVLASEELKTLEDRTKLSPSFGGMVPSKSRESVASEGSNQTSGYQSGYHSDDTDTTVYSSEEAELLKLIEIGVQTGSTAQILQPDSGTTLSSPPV

For `CC(C)CCN(C)c1cc(-n2cnc(Nc3ccccc3)n2)ccn1` [Compound I-62, methyl-(3-methyl-butyl)-[4-(3-phenylamino-[1,2,4]triazol-1-yl)-pyridin-2-yl]-amine], the Ki was less than 100 nM in assay [1], less than 500 nM in assay [2] and 10 to 1000 nM in assay [3].

As for `O=c1[nH]c2ccccc2n1C1CCN(c2cc(-n3cnc(Nc4ccccc4)n3)ccn2)CC1` [Compound I-63], the inhibition constant (Ki) in assay [1], in assay [2] and in assay [3] was greater than 1000 nM throughout.

Regarding `O=C(C1CCCO1)N1CCN(c2cc(-n3cnc(Nc4ccccc4)n3)ccn2)CC1` (stereo not drawn) [Compound I-64], the Ki in assay [1], in assay [2] and in assay [3] was greater than 1000 nM throughout.

Regarding `OC[C@H]1CCCN(c2cc(-n3cnc(Nc4ccccc4)n3)ccn2)C1` [Compound I-65], the Ki in assay [1] was 100 to 1000 nM; in assay [2] it was less than 500 nM; in assay [3] it was 10 to 1000 nM.

With `CC(=O)N1CCCN(c2cc(-n3cnc(Nc4ccccc4)n3)ccn2)CC1` [Compound I-66], the Ki is 100 to 1000 nM in assay [1], 500 to 1000 nM in assay [2] and 10 to 1000 nM in assay [3].

For the compound `CCC(=O)N1CCCN(c2cc(-n3cnc(Nc4ccccc4)n3)ccn2)CC1` [Compound I-67], the figures for the inhibitory constant (Ki) in assay [1], in assay [2] and in assay [3] were 100 to 1000 nM, greater than 1000 nM and 10 to 1000 nM, respectively.

Regarding `CCCC(=O)N1CCCN(c2cc(-n3cnc(Nc4ccccc4)n3)ccn2)CC1` [Compound I-68], the values for the Ki in assay [1], in assay [2] and in assay [3] were greater than 1000 nM, greater than 1000 nM and 10 to 1000 nM, respectively.

Take `CC(C)C(=O)N1CCCN(c2cc(-n3cnc(Nc4ccccc4)n3)ccn2)CC1` [Compound I-69]: the Ki in assay [1], in assay [2] and in assay [3] was greater than 1000 nM in each case.

As for `CC(C)CC(=O)N1CCCN(c2cc(-n3cnc(Nc4ccccc4)n3)ccn2)CC1` [Compound I-70], the inhibitory constant (Ki) in assay [1], in assay [2] and in assay [3] was greater than 1000 nM in each case.

Regarding `COCC(=O)N1CCCN(c2cc(-n3cnc(Nc4ccccc4)n3)ccn2)CC1` [Compound I-71], the inhibition constant Ki in assay [1] is 100 to 1000 nM; in assay [2], greater than 1000 nM; in assay [3], 10 to 1000 nM.

For `N#CCC(=O)N1CCCN(c2cc(-n3cnc(Nc4ccccc4)n3)ccn2)CC1` [Compound I-72], the Ki in assay [1] is 100 to 1000 nM; in assay [2], less than 500 nM; in assay [3] it was 10 to 1000 nM.

Consider `c1ccc(Nc2ncn(-c3ccnc(N4CCCCCC4)c3)n2)cc1` [Compound I-73], for which the values for the Ki in assay [1], in assay [2] and in assay [3] were less than 100 nM, less than 500 nM and less than 10 nM, respectively.

`CC(=O)N1[C@H](C)CN(c2cc(-n3cnc(Nc4ccccc4)n3)ccn2)C[C@@H]1C` [Compound I-74]: the Ki in assay [1] is less than 100 nM; in assay [2], less than 500 nM; in assay [3], less than 10 nM.

As to `CCOC(=O)c1ccc(Nc2ncn(-c3ccnc(N4C[C@@H](C)N(C(C)=O)[C@@H](C)C4)c3)n2)cc1` [Compound I-75], the results for the inhibition constant (Ki) in assay [1], in assay [2] and in assay [3] were less than 100 nM, 500 to 1000 nM and 10 to 1000 nM, respectively.

`CCOC(=O)c1ccc(Nc2ncn(-c3ccnc(N4CCCN(C(C)=O)CC4)c3)n2)cc1` [Compound I-76]: the Ki was 100 to 1000 nM in assay [1], greater than 1000 nM in assay [2] and 10 to 1000 nM in assay [3].

As for `CC(=O)N1[C@H](C)CN(c2cc(-n3cnc(Nc4ccc(NC(=O)N(C)C)cc4)n3)ccn2)C[C@@H]1C` [Compound I-77, 3-(4-{1-[2-(4-Acetyl-3,5-dimethyl-piperazin-1-yl)-pyridin-4-yl]-1H-[1,2,4]triazol-3-ylamino}-phenyl)-1,1-dimethyl-urea], the figures for the inhibition constant Ki in assay [1], in assay [2] and in assay [3] were 100 to 1000 nM, greater than 1000 nM and 10 to 1000 nM, respectively.

As to `COC(=O)Nc1ccc(Nc2ncn(-c3ccnc(N4C[C@@H](C)N(C(C)=O)[C@@H](C)C4)c3)n2)cc1` [Compound I-78], the Ki in assay [1] was less than 100 nM; in assay [2] it was less than 500 nM; in assay [3], 10 to 1000 nM.

Turning to `CC(=O)N1[C@H](C)CN(c2cc(-n3cnc(Nc4ccc(NC(=O)C(F)(F)F)cc4)n3)ccn2)C[C@@H]1C` [Compound I-79], the Ki in assay [1] is less than 100 nM; in assay [2], less than 500 nM; in assay [3], less than 10 nM.

As to `CC(=O)N1[C@H](C)CN(c2cc(-n3cnc(Nc4ccc(NC(=O)c5cccs5)cc4)n3)ccn2)C[C@@H]1C` [Compound I-80], the figures for the Ki in assay [1], in assay [2] and in assay [3] were 100 to 1000 nM, less than 500 nM and 10 to 1000 nM, respectively.

Consider `CC(=O)N1[C@H](C)CN(c2cc(-n3cnc(Nc4ccc(NC(=O)c5ccco5)cc4)n3)ccn2)C[C@@H]1C` [Compound I-81, Furan-2-carboxylic acid (4-{1-[2-(4-acetyl-3,5-dimethyl-piperazin-1-yl)-pyridin-4-yl]-1H-[1,2,4]triazol-3-ylamino}-phenyl)-amide], for which the Ki in assay [1] is less than 100 nM; in assay [2], 500 to 1000 nM; in assay [3], 10 to 1000 nM.

With `CC(=O)N1[C@H](C)CN(c2cc(-n3cnc(Nc4ccc(N)cc4)n3)ccn2)C[C@@H]1C` [Compound I-82], the Ki in assay [1] was less than 100 nM; in assay [2], less than 500 nM; in assay [3], less than 10 nM.

Regarding `CC(=O)N1[C@H](C)CN(c2cc(-n3cnc(Nc4ccc(N5CCOCC5)cc4)n3)ccn2)C[C@@H]1C` [Compound I-85, 1-(2,6-Dimethyl-4-{4-[3-(4-morpholin-4-yl-phenylamino)-[1,2,4]triazol-1-yl]-pyridin-2-yl}-piperazin-1-yl)-ethanone], the figures for the Ki in assay [1], in assay [2] and in assay [3] were 100 to 1000 nM, less than 500 nM and 10 to 1000 nM, respectively.

Regarding `CCCOC(=O)Nc1ccc(Nc2ncn(-c3ccnc(N4C[C@@H](C)N(C(C)=O)[C@@H](C)C4)c3)n2)cc1` [Compound I-88], the Ki in assay [1] is 100 to 1000 nM; in assay [2], less than 500 nM; in assay [3] it was 10 to 1000 nM.
